In patent US11427783B2, “Perfuming compositions” (Firmenich SA, priority 2016, dated 2022):
Where a name gives a salt, the structure may show the parent alone. Read-outs that look alike come from different tables or passages of the source.

What was measured:
[1] = Volatility of perfuming compounds in air; format: physicochemical
[2] = Odor threshold of perfuming compounds in air
[3] = Log P (n-octanol/water) of perfuming compounds
[4] = n-octanol/water, perfuming compounds having a fruity note (Table 6)
[5] = Table 5, perfuming compounds having a green note

Structure (SMILES)	Volatility ([1]; Table 4, watery note)	Odor Threshold ([2]; Table 4, watery note)	logP (physchem)	Odor Threshold ([2]; Table 7, citrus note)	Log P (n-octanol/water) ([3]; Table 7, citrus note)	Log P (n-octanol/water) [3, 4]	Volatility ([1]; Table 7, citrus note)	logP (physchem; n-octanol/water)	Volatility [1, 5]	Log P (n-octanol/water) [3, 5]
CC(C=O)Cc1ccc2c(c1)OCO2 (racemic) [(+−)-3-(1,3-BENZODIOXOL-5-YL)-2-METHYLPROPANAL]	3.57 μg/l air	2.23E−04 μg/l air	1.28							
C=CC(C)(CCC=C(C)C)OC(C)=O (racemic) [(+−)-1,5-DIMETHYL-1-VINYL-4-HEXENYL ACETATE]			4.04	7.40E−02 μg/l air	4.04	4.04				
CCOc1ccc2ccccc2c1 [2-ETHOXYNAPHTHALENE]				3.57E−03 μg/l air			22.67 μg/l air	3.82		
Cc1ccc2c(c1)CC(C)(CO)C2 (racemic)	4.86 μg/l air	1.28E−04 μg/l air						3.12		
CC(C)=CCCC(C)CCOCC=O (racemic)				8.95E−04 μg/l air			4.70 μg/l air	4.33		
COCC(C)Cc1ccccc1 (racemic) [(+−)-(3-methoxy-2-methylpropyl)benzene]				1.51E−02 μg/l air	3.57	3.57		3.57		
COc1ccc(CC(C)C=O)cc1 (racemic) [(+−)-3-(4-methoxyphenyl)-2-methylpropanal]	18.99 μg/l air	9.79E−03 μg/l air						2.8	18.99 μg/l air	2.80
CCCCCCCCCCC=O [undecanal]	178.29 μg/l air	1.65E−03 μg/l air						4.56		
CC(C)CC1CC(C)(O)CCO1 (racemic) [(+−)-TETRAHYDRO-2-ISOBUTYL-4-METHYL-4(2H)-PYRANOL]	79.79 μg/l air	1.35E−02 μg/l air						2.22		
CC(C=O)Cc1ccc(C(C)(C)C)cc1 (racemic) [(+−)-2-methyl-3-[4-(2-methyl-2-propanyl)phenyl]propanal]	12.86 μg/l air	2.39E−04 μg/l air						3.9		
CCC(C)C(=O)OC(C)C (racemic) [(+−)-ISOPROPYL 2-METHYLBUTANOATE]				8.42E−03 μg/l air	2.85			2.85		
COC(=O)c1c(C)cc(O)c(C)c1O [METHYL 2,4-DIHYDROXY-3,6-DIMETHYLBENZOATE]	1.52 μg/l air	4.89E−06 μg/l air						2.3		
CCCc1ccc2c(c1)OCC(=O)CO2 [7-PROPYL-2H,4H-1,5-BENZODIOXEPIN-3-ONE]	4.85 μg/l air	6.43E−05 μg/l air						2.79	4.85 μg/l air	2.79
CC(=O)OC(C)c1ccccc1 (racemic) [(+−)-1-PHENYLETHYL ACETATE]				4.43E−02 μg/l air	2.22			2.22		
CCCCCCCCC=O [nonanal]				8.14E−03 μg/l air	3.42		2777.63 μg/l air	3.42	2777.63 μg/l air	
CC(C)=CCCC(C)C=O (racemic)		2.11E−04 μg/l air				3.15		3.15		
CCCCCCC#CC(=O)OC [METHYL 2-NONYNOATE]	91.76 μg/l air	1.60E−03 μg/l air						3.51	91.76 μg/l air	3.51
CC/C=C\CC/C=C/CO [(2E,6Z)-2,6-NONADIEN-1-OL]	98.76 μg/l air	3.22E−06 μg/l air						2.68	98.76 μg/l air	2.68
CC(CC=O)CCCC(C)(C)O (racemic) [(+−)-7-hydroxy-3,7-dimethyloctanal]	12.81 μg/l air	6.98E−03 μg/l air						2		
CC(C)CCCC(C)CCO (racemic)				4.59E−02 μg/l air			76.57 μg/l air	4.24		

Structure (SMILES)	Volatility ([1]; Table 4, watery note)	Odor Threshold ([2]; Table 4, watery note)	logP (physchem)	Odor Threshold ([2]; Table 7, citrus note)	Log P (n-octanol/water) ([3]; Table 7, citrus note)	Log P (n-octanol/water) [3, 4]	Volatility ([1]; Table 7, citrus note)	logP (physchem; n-octanol/water)	Volatility [1, 5]	Log P (n-octanol/water) [3, 5]
C=CCCCCCCCCC=O [10-undecenal]	136.73 μg/l air	3.15E−03 μg/l air						3.93		
CC(C)=CCCC1=CCC(C)(C=O)CC1 (racemic)	26.54 μg/l air	2.72E−02 μg/l air						5.14		
CC1=CC2CC(C=O)C1CC2C(C)C (stereo not drawn) [8-ISOPROPYL-6-METHYL-BICYCLO[2.2.2]OCT-5-ENE-2-CARBALDEHYDE]	131.02 μg/l air	7.11E−05 μg/l air						3.81	131.02 μg/l air	3.81
CCCCCCCOC(C)=O [heptyl acetate]				1.32E−01 μg/l air	3.69			3.69		
CCC/C=C/C=O [(2E)-2-HEXENAL]				2.53E−03 μg/l air	1.62	1.62		1.62		
CCCCCCCCCC(C)C=O (racemic) [(+−)-2-methylundecanal]	75.55 μg/l air	7.24E−05 μg/l air						5.01		
CC(C=O)Cc1ccc(C(C)C)cc1 (racemic) [(+−)-3-(4-isopropylphenyl)-2-methylpropanal]	24.85 μg/l air	3.00E−03 μg/l air						3.59		
CCCCCCCCCCCC#N [DODECANENITRILE]	56.74 μg/l air	3.20E−06 μg/l air						1.61		
CC(C)=CCCC(C)CCCC(C)C=O (racemic)	18.23 μg/l air	1.59E−02 μg/l air						5.2		
CC(C)(C)c1ccc2c(c1)OCC(=O)CO2 [7-(2-methyl-2-propanyl)-2H-1,5-benzodioxepin-3(4H)-one]	4.37 μg/l air	1.53E−04 μg/l air						2.97	4.37 μg/l air	2.97
CC1=CCC(C(C)C)=CC1 [1-methyl-4-(2-propanyl)-1,4-cyclohexadiene]			5.87	1.16E−01 μg/l air			4298.67 μg/l air			
CCCCCC#CC(=O)OC [METHYL 2-OCTYNOATE″, METHYL 2-OCTYNOATE]	472.01 μg/l air	8.31E−04 μg/l air						2.9	472.01 μg/l air	
CCCCCCCCOC(C)=O [octyl acetate]				1.76E−01 μg/l air	4.29			4.29		
O=COCCc1ccccc1 [2-PHENYLETHYL FORMATE]				8.34E−04 μg/l air	1.90	1.90		1.9		
CCCCC[C@H]1C(=O)CC[C@@H]1CC(=O)OC (racemic) [methyl 2-((1RS,2RS)-3-oxo-2-pentylcyclopentyl)acetate]				5.77E−04 μg/l air			2.12 μg/l air	2.92		
C=CC(C)CC(=O)CC(C)C (racemic)				2.78E−01 μg/l air	3.12			3.12		
CCCCCCCCCCCC=O [DODECANAL]	144.79 μg/l air	9.90E−04 μg/l air						4.94		
CCCCCC(C#N)CCC (racemic) [(+−)-2-propylheptanenitrile]				7.83E−02 μg/l air	3.67			3.67		
CCCCCC=O [hexanal]				1.76E−03 μg/l air	2.00		68294.85 μg/l air	2	68294.85 μg/l air	
CCCCCCCCCC=O [DECANAL″, DECANAL]	466.56 μg/l air	1.92E−03 μg/l air						3.99		
